Assay results from the CheMixHub drug solubility set.

Assay: xn = mol fraction of the nth substance listed, in the solute-free solvent

CC(C)C(=O)Nc1ccc([N+](=O)[O-])c(C(F)(F)F)c1 + CC(C)=O + CC(C)O
solubility (g/100 g solution)
Conditions	278.15 K	283.15 K	288.15 K	293.15 K	298.15 K	303.15 K	308.15 K	313.15 K	318.15 K	323.15 K
x2 = 0.1	25.4	27.7	30.1	33.4	37.2	41	44.5	48.4	53.4	59
x2 = 0.2	31.8	34.1	37	40.1	44.1	48	52	55.4	58.7	61.9
x2 = 0.3	35.7	39	42	45.1	48.5	52.2	55.4	58.4	61.4	64.6
x2 = 0.4	38.8	42.4	45.5	48.8	52.2	55.7	59.1	62.2	65	68
x2 = 0.5	42.2	45.7	48.9	52.2	55.5	58.8	61.7	65	68.2	71.2
x2 = 0.6	44.1	47.5	51.6	54.6	57.9	61.1	63.8	67.1	70.5	73.9
x2 = 0.7	47.6	50.5	54.4	57.4	60.6	64	66.9	70.1	73.3	76.3
x2 = 0.8	49.3	52.8	56.5	59.7	62.9	66.1	68.9	72	75.2	78.1
x2 = 0.9	51	54.5	58	61.3	64.7	67.9	71.1	74	76.8	79.6

c1ccc2c(c1)CCc1ccccc1N2 + CCO + O
solubility (g/100 g solution)
Conditions	283.15 K	288.15 K	293.15 K	298.15 K	303.15 K	308.15 K	313.15 K	318.15 K	323.15 K	328.15 K
x2 = 0.04179	0.0221	0.0315	0.0433	0.0609	0.0803	0.109	0.143	0.188	0.245	0.315
x2 = 0.08913	0.114	0.158	0.211	0.288	0.371	0.489	0.626	0.801	1.02	1.28
x2 = 0.1443	0.214	0.292	0.388	0.52	0.666	0.866	1.1	1.39	1.75	2.17
x2 = 0.207	0.24	0.326	0.432	0.576	0.738	0.954	1.21	1.53	1.91	2.38
x2 = 0.2814	0.229	0.311	0.414	0.548	0.706	0.909	1.15	1.46	1.82	2.27
x2 = 0.3697	0.231	0.313	0.417	0.55	0.71	0.909	1.15	1.46	1.82	2.26
x2 = 0.4785	0.269	0.363	0.465	0.612	0.779	1	1.28	1.62	2.02	2.49
x2 = 0.6105	0.316	0.423	0.561	0.728	0.94	1.19	1.5	1.89	2.33	2.88
x2 = 0.7769	0.374	0.498	0.659	0.848	1.09	1.37	1.73	2.16	2.66	3.28
